The values that follow come from PMC11767490, “A Bis-Glycosylamine Strategy for the Synthesis of Dimeric Iminosugars Based on a DAB-1 Scaffold” (Molecules, 2025).

Usually % inhibition stands for the share of the control response that was lost under treatment. A high value points to strong suppression. As usually defined, the IC50 is the point on the concentration scale where inhibition reaches its midpoint.

Molecules are shown by their SMILES. Read-outs that look alike come from different tables or passages of the source. Marks after values point to notes of the source that are not given here. Where only a bound is given, the exact number is not on record here.

Experiment [1] addresses T1, α-glucosidase (rice) (Oryza sativa subsp. japonica, UniProt Q653V7).
T1 construct: purchased Sigma Chemical Co
As to the kind of experiment: glycosidase inhibition assay, α-glucosidase from rice. It counts as biochemical. To be noted: for inhibition at 1000 µM: pH 5.1, 1 mM inhibitor, pH 5.1, p-nitrophenyl glycoside 1 mM, read-out: % inhibition at 1 mM concentration of inhibitor. As to the method: (§1) A prepared sample of DAB-1 8 was also tested under the same conditions for ease of comparison. A first set of biological assays was effected at 1 mM concentration of inhibitor. […] Former results from our laboratories have always followed this empirical rule.
(§2) All the enzymes were purchased from Sigma Chemical Co. In a typical experiment, the glycosidase (0.013 U/mL) was pre-incubated at 33 °C for 5 min in the presence of the inhibitor in 50 mM acetate buffer (pH 5.6, except for rice α-glucosidase pH 5.1 and yeast α-glucosidase pH 6.2). The reaction was started by the addition of the appropriate substrate (p-nitrophenyl glycoside, 1 mM concentration) to a final volume of 250 µL. The reaction was stopped after 10–15 min (depending on the enzyme) by the addition of 350 µL of 0.4 M Na2CO3. The released p-nitrophenolate was quantified spectrophotometrically at 415 nm with a microplate reader (300 µL of the reaction mixture per well). […] All the assays were performed in duplicate (less than 10% variability in each case).

Experiment [2] has as its target T2, α-glucosidase (Sac. cerevisiae) (Saccharomyces cerevisiae, UniProt P53341).
T2 construct: purchased Sigma Chemical Co
As to the kind of experiment: glycosidase inhibition assay, α-glucosidase from yeast. To be noted: for inhibition at 1000 µM: pH 6.2, read-out: % inhibition at 1 mM concentration of inhibitor, 1 mM inhibitor, negative values mean activation. It counts as biochemical. The method, then: as §1, §2

Experiment [3] relates to β-glucosidase (almond). As to the kind of experiment: glycosidase inhibition assay, β-glucosidase from almond. It counts as biochemical. Conditions: pH 5.6; for % inhibition at 1 mM concentration of inhibitor: 1 mM inhibitor. The method, then:
as §1, §2

Experiment [4] concerns the target T3, β-glucosidase (Asp. niger) (Aspergillus niger, UniProt A2RAL4).
T3 construct: purchased Sigma Chemical Co
The experiment can be described thus: glycosidase inhibition assay, β-glucosidase from A. niger. It counts as biochemical. Conditions: for inhibition at 1000 µM: pH 5.6, 1 mM inhibitor, pH 5.6, read-out: % inhibition at 1 mM concentration of inhibitor. The method, then: as §1, §2

In experiment [5] the target is T4, β-galactosidase (Asp. orizae) (Aspergillus oryzae, UniProt Q2UCU3).
T4 construct: purchased Sigma Chemical Co
T4 sequence (Q2UCU3 19-1005): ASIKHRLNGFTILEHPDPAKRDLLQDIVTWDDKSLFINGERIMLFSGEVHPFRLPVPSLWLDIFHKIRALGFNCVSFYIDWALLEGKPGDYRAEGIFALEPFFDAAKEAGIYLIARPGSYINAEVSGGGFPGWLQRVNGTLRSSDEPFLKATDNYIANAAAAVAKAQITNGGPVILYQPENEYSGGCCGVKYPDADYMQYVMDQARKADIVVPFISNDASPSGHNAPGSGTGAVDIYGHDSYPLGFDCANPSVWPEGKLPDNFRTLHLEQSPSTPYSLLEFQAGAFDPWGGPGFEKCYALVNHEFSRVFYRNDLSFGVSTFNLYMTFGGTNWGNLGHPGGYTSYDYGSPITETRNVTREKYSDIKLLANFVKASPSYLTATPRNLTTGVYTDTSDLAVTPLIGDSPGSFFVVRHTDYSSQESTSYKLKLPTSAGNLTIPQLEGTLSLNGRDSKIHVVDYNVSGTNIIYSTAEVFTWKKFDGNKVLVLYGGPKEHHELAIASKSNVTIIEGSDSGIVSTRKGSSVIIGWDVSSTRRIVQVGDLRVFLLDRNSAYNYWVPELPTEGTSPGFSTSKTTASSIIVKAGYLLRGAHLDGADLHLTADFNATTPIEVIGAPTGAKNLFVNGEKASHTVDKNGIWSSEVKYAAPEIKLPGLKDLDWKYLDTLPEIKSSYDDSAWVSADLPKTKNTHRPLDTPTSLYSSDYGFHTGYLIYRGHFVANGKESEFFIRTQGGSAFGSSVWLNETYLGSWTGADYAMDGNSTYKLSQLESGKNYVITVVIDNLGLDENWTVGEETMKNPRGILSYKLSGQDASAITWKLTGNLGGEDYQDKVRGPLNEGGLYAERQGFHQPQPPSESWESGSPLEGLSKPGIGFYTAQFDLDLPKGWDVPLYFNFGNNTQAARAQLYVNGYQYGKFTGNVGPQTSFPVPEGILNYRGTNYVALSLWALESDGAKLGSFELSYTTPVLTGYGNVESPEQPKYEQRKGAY
The experiment can be described thus: glycosidase inhibition assay, β-galactosidase from A. orizae. In kind it is biochemical. Conditions: for inhibition at 1000 µM: pH 5.6, read-out: % inhibition at 1 mM concentration of inhibitor; for IC50: pH 5.6. The method, then: as §1, §2

Experiment [6] addresses T5, α-mannosidase (Jack bean) (Canavalia ensiformis, UniProt C0HJB3).
T5 construct: purchased Sigma Chemical Co
T5 sequence (C0HJB3 1-981): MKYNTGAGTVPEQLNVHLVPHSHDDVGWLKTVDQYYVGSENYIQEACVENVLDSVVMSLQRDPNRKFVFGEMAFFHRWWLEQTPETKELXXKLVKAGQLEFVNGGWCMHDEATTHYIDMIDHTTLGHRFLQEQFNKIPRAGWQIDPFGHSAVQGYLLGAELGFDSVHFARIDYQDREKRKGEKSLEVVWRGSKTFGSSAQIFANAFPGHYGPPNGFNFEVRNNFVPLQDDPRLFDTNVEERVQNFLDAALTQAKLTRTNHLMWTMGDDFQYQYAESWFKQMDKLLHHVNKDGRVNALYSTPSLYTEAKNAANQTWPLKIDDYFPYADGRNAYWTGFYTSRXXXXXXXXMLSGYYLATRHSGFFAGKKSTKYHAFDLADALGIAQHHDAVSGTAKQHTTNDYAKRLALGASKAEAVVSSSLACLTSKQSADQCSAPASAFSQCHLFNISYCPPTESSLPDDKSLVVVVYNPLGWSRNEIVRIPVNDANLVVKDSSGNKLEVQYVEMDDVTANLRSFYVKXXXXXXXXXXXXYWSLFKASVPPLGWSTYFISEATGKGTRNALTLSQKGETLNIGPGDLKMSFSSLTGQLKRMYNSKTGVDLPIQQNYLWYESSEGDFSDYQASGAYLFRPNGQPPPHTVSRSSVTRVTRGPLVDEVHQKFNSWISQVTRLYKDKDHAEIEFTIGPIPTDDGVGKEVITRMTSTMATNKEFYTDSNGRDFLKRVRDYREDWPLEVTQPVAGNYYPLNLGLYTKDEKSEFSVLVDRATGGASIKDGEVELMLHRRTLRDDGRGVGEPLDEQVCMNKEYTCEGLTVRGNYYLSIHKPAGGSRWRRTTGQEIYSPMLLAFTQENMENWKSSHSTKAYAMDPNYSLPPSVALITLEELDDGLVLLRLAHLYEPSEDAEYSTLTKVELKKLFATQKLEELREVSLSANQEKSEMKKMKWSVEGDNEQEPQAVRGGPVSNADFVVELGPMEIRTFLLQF
As to the kind of experiment: glycosidase inhibition assay, α-mannosidase from Jack bean. It counts as biochemical. As to the method: as §1, §2

Experiment [7] has as its system α-rhamnosidase (Asp. niger). As to the kind of experiment: glycosidase inhibition assay, α-rhamnosidase from A. niger. In kind it is biochemical. Conditions: 1 mM inhibitor; pH 5.6. As to the method:
as §1, §2

For experiment [8], the target named is T6, α-galactosidase (green coffee) (Coffea arabica, UniProt Q42656).
T6 construct: purchased Sigma Chemical Co
T6 sequence (Q42656 16-378): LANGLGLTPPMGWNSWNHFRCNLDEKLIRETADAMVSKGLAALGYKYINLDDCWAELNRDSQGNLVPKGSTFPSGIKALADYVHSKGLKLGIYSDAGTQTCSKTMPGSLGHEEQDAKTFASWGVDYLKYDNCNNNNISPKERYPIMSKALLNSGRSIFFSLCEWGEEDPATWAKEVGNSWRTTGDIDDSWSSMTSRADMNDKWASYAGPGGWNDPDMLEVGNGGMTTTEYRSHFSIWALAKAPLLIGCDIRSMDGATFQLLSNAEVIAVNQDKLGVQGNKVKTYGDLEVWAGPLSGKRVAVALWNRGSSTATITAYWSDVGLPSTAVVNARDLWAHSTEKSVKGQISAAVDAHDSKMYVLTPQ
The experiment can be described thus: glycosidase inhibition assay, α-galactosidase from green coffee bean. In kind it is biochemical. Conditions: 1 mM inhibitor; pH 5.6; read-out: % inhibition at 1 mM concentration of inhibitor. As to the method: as §1, §2

Experiment [9] concerns β-GlcNAc-ase (Jack bean). The experiment can be described thus: glycosidase inhibition assay, β-N-acetylglucosaminidase from Jack bean. It counts as biochemical. Conditions: for % inhibition at 1 mM concentration of inhibitor: 1 mM inhibitor, pH 5.6, negative values mean activation; for activation of enzyme activity: 1 mM compound. The method, then:
as §1, §2

Experiment [10] concerns the target fucosidase. On the set-up: method as in PMID 27138139. Conditions: cited from earlier work.
Where [11] appears, read: pH 5.6, read-out: % inhibition at 1 mM concentration of inhibitor.
Where [12] appears, read: 1 mM inhibitor, pH 5.6, read-out: % inhibition at 1 mM concentration of inhibitor.

T1 sequence (Q653V7 34-885): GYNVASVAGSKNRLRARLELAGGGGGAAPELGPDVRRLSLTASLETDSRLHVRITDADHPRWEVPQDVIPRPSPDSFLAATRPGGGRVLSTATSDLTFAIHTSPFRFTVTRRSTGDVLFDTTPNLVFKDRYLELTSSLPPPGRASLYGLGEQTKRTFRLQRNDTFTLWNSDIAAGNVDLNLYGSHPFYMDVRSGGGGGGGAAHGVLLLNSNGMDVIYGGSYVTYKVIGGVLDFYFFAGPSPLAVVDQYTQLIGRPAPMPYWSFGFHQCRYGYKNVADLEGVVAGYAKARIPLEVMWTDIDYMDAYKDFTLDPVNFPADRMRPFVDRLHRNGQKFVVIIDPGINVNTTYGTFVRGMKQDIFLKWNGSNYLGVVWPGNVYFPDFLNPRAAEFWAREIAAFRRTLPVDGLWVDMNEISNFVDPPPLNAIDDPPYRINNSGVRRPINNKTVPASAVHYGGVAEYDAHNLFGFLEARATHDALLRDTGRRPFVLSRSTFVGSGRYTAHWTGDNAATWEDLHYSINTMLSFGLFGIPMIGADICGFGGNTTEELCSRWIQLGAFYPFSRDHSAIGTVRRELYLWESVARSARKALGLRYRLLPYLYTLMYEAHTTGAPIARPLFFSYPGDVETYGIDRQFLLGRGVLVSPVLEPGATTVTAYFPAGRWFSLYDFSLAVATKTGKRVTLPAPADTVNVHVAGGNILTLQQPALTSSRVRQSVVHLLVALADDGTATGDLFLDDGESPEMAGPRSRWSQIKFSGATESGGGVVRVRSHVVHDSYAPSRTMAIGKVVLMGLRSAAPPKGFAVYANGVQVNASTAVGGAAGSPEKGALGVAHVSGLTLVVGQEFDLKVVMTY
T2 sequence (P53341 whole entry): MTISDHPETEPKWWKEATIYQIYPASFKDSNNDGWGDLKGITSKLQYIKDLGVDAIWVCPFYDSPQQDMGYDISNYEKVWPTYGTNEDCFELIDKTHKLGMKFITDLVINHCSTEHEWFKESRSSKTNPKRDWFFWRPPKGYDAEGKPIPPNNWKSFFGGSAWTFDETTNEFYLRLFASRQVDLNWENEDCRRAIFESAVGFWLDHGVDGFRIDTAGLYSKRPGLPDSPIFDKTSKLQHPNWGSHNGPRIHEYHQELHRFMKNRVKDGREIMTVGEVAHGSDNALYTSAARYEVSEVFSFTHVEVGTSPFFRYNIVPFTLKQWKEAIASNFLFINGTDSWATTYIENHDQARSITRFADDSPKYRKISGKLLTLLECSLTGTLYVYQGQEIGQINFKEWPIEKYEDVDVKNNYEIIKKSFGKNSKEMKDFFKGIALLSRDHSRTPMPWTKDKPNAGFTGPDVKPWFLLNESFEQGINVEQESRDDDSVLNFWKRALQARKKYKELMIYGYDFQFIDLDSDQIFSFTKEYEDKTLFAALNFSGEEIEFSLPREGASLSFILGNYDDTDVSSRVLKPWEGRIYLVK
T3 sequence (A2RAL4 20-860): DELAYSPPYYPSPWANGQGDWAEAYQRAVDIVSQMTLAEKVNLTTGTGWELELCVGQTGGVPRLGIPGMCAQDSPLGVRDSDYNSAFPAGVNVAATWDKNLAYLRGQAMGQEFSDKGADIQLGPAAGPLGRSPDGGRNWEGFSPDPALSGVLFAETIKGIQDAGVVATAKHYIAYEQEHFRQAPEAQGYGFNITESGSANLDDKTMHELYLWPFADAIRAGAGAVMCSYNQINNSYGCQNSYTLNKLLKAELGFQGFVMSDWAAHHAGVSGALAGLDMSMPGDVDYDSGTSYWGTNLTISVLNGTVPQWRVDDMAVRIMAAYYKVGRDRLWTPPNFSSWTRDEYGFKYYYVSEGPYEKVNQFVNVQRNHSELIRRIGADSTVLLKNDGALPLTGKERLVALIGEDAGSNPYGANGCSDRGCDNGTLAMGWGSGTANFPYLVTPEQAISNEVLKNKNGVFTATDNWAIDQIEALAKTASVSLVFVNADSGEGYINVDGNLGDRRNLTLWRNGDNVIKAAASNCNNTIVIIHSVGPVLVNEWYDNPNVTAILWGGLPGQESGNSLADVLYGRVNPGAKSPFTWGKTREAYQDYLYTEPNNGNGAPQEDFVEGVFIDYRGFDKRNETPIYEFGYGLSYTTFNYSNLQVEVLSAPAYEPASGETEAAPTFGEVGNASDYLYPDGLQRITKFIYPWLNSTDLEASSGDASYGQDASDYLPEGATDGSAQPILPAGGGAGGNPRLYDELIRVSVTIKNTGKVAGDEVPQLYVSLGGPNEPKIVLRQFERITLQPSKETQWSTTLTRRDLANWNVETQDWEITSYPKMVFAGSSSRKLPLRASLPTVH

`OC[C@@H]1[C@@H](O)[C@H](O)CN1Cc1cccc(CN2C[C@@H](O)[C@H](O)[C@H]2CO)c1` [13a]: the inhibition at 1000 µM turned out to be 40% in experiment [1]; 88% in experiment [2] (pH 6.2); 24% in experiment [4]; 93% in experiment [5]; 75% in [6] (setting [11]); 38% in experiment [8]. The figures for the “% inhibition at 1 mM concentration of inhibitor” value (“% inhibition” for short) in experiment [3], in experiment [7] and in experiment [9] were 13%, 67% and “NI (NI means no impact on enzyme activity (less than 5% inhibition or activation))”, respectively.

As to `OC[C@@H]1[C@@H](O)[C@H](O)CN1Cc1ccc(CN2C[C@@H](O)[C@H](O)[C@H]2CO)cc1` [13b], the inhibition at 1000 µM in experiment [1] is 77%; in experiment [2] (pH 6.2) it was 95%; in [4] it was 43%; in [5], more than 95%; in [6] (setting [12]), 84%; in experiment [8], less than 5%. The IC50 was determined as 39 µM in experiment [2] and 2.8 µM in experiment [5]. Moreover, the “% inhibition” value in experiment [3] is given as 16%; in experiment [7], 24%; in [9], “NI (NI means no impact on enzyme activity (less than 5% inhibition or activation))”.

In the case of `OC[C@@H]1[C@@H](O)[C@H](O)CN1CCCCCCCCN1C[C@@H](O)[C@H](O)[C@H]1CO` [13c], the inhibition at 1000 µM is 92% in [1]; 88% in experiment [2] (pH 6.2); 94% in [4]; more than 95% in [5]; more than 95% in [6] (setting [12]); 61% in [8]. Moreover, the “% inhibition” value was 60% in [3], 69% in experiment [7] and “NI (NI means no impact on enzyme activity (less than 5% inhibition or activation))” in experiment [9]. The IC50 in [5] came to 31 µM; in experiment [6] (pH 5.6), 18 µM.

For `OC[C@@H]1[C@@H](O)[C@H](O)CN1CCOCCOCCN1C[C@@H](O)[C@H](O)[C@H]1CO` [13d], the inhibition at 1000 µM is approximately 90% in [1]; approximately 90% in [2] (pH 6.2); approximately 90% in experiment [4]; 92% in [5]; 82% in experiment [6] (setting [11]); 22% in [8]. Moreover, the “% inhibition” value in [3] was 24%; in [7] it was 46%; in experiment [9] it was “–38% ^c”. In experiment [9], the “activation of enzyme activity” value is 38%.

As to `OC[C@@H]1[C@@H](O)[C@H](O)CN1CCCOCCOCCOCCCN1C[C@@H](O)[C@H](O)[C@H]1CO` [13e], the inhibition at 1000 µM in [1] is 72%; in experiment [2] (pH 6.2), 65%; in experiment [4], 91%; in [5], 81%; in experiment [6] (setting [12]) it was more than 95%; in experiment [8] it was 22%. The “% inhibition” value is reported as 23% in experiment [3], 18% in experiment [7] and “NI (NI means no impact on enzyme activity (less than 5% inhibition or activation))” in [9]. In experiment [6] (pH 5.6), this compound displayed an IC50 of 34 µM.

Take `C=CC[C@@H]1[C@@H](O)[C@H](O)[C@@H](CO)N1CCOCCOCCN1[C@H](CO)[C@@H](O)[C@H](O)[C@H]1CC=C` [16d]: the inhibition at 1000 µM in [1] was 26%; in experiment [2] (pH 6.2) it was -20%; in experiment [4], 51%; in experiment [5] it was 58%; in experiment [6] (setting [11]), 32%; in [8], less than 5%. In addition, in experiment [2] (activation, 1 mM compound), the “enhancement of enzyme activity” value was determined as 20%. The entries for the “% inhibition” value in experiment [3], in [7] and in experiment [9] were 25%, 25% and “–33% ^c”, respectively. Further, in experiment [9], the “activation of enzyme activity” value came out at 33%.

Take `OC[C@H]1NC[C@@H](O)[C@@H]1O` [DAB-1]: the 50% inhibitory concentration (IC50) in experiment [1] turned out to be 7.8 µM; in experiment [2] (pH 6.2, determined when >95% inhibition at 1 mM, read-out: IC50), 0.69 µM; in [3], 79 µM; in experiment [4] it was 62 µM; in [6] (pH 5.6) it was 49 µM. The inhibition at 1000 µM in experiment [1] was more than 95%; in experiment [2] (pH 6.2), more than 95%; in experiment [4], more than 95%; in experiment [5] it was 76%; in experiment [6] (setting [12]), more than 95%; in experiment [8], 11%. The results for the “% inhibition” value in experiment [3], in [7] and in experiment [9] were 95%, 34% and 14%, respectively.

With `C[C@@H]1N[C@@H](CCCC[C@@H]2N[C@@H](C)[C@@H](O)[C@H]2O)[C@H](O)[C@@H]1O` [compound 6], the concentration for half-maximal inhibition (IC50) in [10] was 0.108 µM. Further, in [10] (dimer vs monomer), the “fold increase in the inhibition potency relative to the monomer” value is reported as 19 fold.
